Measurements taken from patent US20240307401A1, “TREATMENT OF JAK-INHIBITION-RESPONSIVE DISORDERS WITH PRODRUGS OF JAK INHIBITORS” (SUN PHARMACEEUTICAL INDUSTRIES, INC., priority 2021, published 2024).

What was measured:
[1] = test system: patients suffering from alopecia areata; settings: human clinical trials, at certain doses; cited from earlier work
[2] = In vitro conversion of Compound (I-1d) DBTA salt to CTP-543 under conditions similar to human stomach (0.1N HCl, 37° C.), HPLC analysis; assay type: physicochemical; settings: for CTP-543 Concentration: 28.5 mg DBTA salt in 250 mL
Description: An in vitro study was conducted to test the conversion of the dibenzoyl-D-tartaric acid (DBTA) salt of Compound (I-1d) (a compound of Formula (I)) to CTP-543 (a compound of Formula (III)) when subjected to biologically-relevant conditions similar to human stomach conditions (0.1N hydrochloric acid, 37° C.).
Study Conditions: At 37° C., 28.5 mg of Compound (I-1d)·DBTA salt (equivalent to 14.6 mg of Compound (I-1d)) was added to 250 mL of 0.1N HCl while stirring. Samples were removed via syringe at 30, 60, 120 and 240 minutes, (times relevant to potential human gastric residence time), then were filtered through a syringe filter and analyzed by HPLC.

Row | SMILES | Hair growth in patients suffering from alopecia areata [1] | % Conversion to CTP-543 ([2]; 30 min) | CTP-543 Concentration ([2]; 30 min) | % Conversion to CTP-543 ([2]; 60 min) | CTP-543 Concentration ([2]; 60 min) | % Conversion to CTP-543 ([2]; 120 min) | CTP-543 Concentration ([2]; 120 min) | % Conversion to CTP-543 ([2]; 240 min) | CTP-543 Concentration ([2]; 240 min)
1 | [2H]C1([2H])C([C@@H](CC#N)n2cc(-c3ncnc4[nH]ccc34)cn2)C([2H])([2H])C([2H])([2H])C1([2H])[2H] [CTP-543, (R)-3-(4-(7H-pyrrolo[2,3-d]pyrimidin-4-yl)-1H-pyrazol-1-yl)-3-(cyclopentyl-2,2,3,3,4,4,5,5-d8)propanenitrile] | shown to stimulate hair growth | – | – | – | – | – | – | – | –
2 | [2H]C1([2H])C([C@@H](CC#N)n2cc(-c3ncnc(N)c3CC(OC)OC)cn2)C([2H])([2H])C([2H])([2H])C1([2H])[2H] [Compound (I-1d)] | – | 8% | 0.004 mg/mL | 10% | 0.005 mg/mL | 16% | 0.008 mg/mL | 22% | 0.011 mg/mL
